This is an account of results in PubChem BioAssay AID1259407 (Chemical Carcinogenesis Research Information System (CCRIS), 2018).

For the data set, the system named is CCRIS mutagenicity, Ames/micronucleus/aberration tests. Briefly: CCRIS mutagenicity studies.
The mark [1] stands for this setting: Test System: AMES SALMONELLA TYPHIMURIUM, Strain/Indicator: TA98, Metabolic Activation: NONE, Method: PREINCUBATION
[2] abbreviates: Test System: AMES SALMONELLA TYPHIMURIUM, Strain/Indicator: TA98, Metabolic Activation: NONE, Method: STANDARD PLATE.
[3] abbreviates: Test System: AMES SALMONELLA TYPHIMURIUM, Strain/Indicator: TA100, Metabolic Activation: NONE, Method: PREINCUBATION
Setting [4] is: Test System: AMES SALMONELLA TYPHIMURIUM, Strain/Indicator: TA100, Metabolic Activation: NONE, Method: STANDARD PLATE.
The mark [5] stands for this setting: Test System: AMES SALMONELLA TYPHIMURIUM, Strain/Indicator: TA102, Metabolic Activation: NONE, Method: PREINCUBATION
[6] abbreviates: Test System: AMES SALMONELLA TYPHIMURIUM, Strain/Indicator: TA100, Metabolic Activation: RAT, LIVER, S-9, AROCLOR 1254, Method: STANDARD PLATE.

The source made the active and inactive calls. The rule behind the calls is not given here.

As for `CC(C)(C)S(=O)(=O)C[C@@H](Cc1ccccc1)C(=O)N[C@@H](Cc1cnc[nH]1)C(=O)N[C@@H](CC1CCCCC1)[C@@H](O)[C@@H](O)C1CC1`, the mutagenic call is, setting by setting: (Test System: AMES SALMONELLA TYPHIMURIUM, Strain/Indicator: TA97, Metabolic Activation: NONE, Method: PREINCUBATION) “inactive; negative”; (Test System: AMES SALMONELLA TYPHIMURIUM, Strain/Indicator: TA97, Metabolic Activation: NONE, Method: STANDARD PLATE) “inactive; negative”; (Test System: AMES SALMONELLA TYPHIMURIUM, Strain/Indicator: TA97, Metabolic Activation: RAT, LIVER, S-9, PHENOBARBITAL AND BETA-NAPHTHOFLAVONE, Method: PREINCUBATION) “inactive; negative”; (Test System: AMES SALMONELLA TYPHIMURIUM, Strain/Indicator: TA97, Metabolic Activation: RAT, LIVER, S-9, PHENOBARBITAL AND BETA-NAPHTHOFLAVONE, Method: STANDARD PLATE) “inactive; negative”; under setting [1], “inactive; negative”; under setting [2], “inactive; negative”. In addition, the mutagenic call (Test System: AMES SALMONELLA TYPHIMURIUM, Strain/Indicator: TA98, Metabolic Activation: RAT, LIVER, S-9, PHENOBARBITAL AND BETA-NAPHTHOFLAVONE, Method: PREINCUBATION) is “inactive; negative”; the mutagenic call (Test System: AMES SALMONELLA TYPHIMURIUM, Strain/Indicator: TA98, Metabolic Activation: RAT, LIVER, S-9, PHENOBARBITAL AND BETA-NAPHTHOFLAVONE, Method: STANDARD PLATE) was “inactive; negative”; the mutagenic call under setting [3] is “inactive; negative”; the mutagenic call under setting [4] is “inactive; negative”; the mutagenic call (Test System: AMES SALMONELLA TYPHIMURIUM, Strain/Indicator: TA100, Metabolic Activation: RAT, LIVER, S-9, PHENOBARBITAL AND BETA-NAPHTHOFLAVONE, Method: PREINCUBATION) is “inactive; negative”; the mutagenic call (Test System: AMES SALMONELLA TYPHIMURIUM, Strain/Indicator: TA100, Metabolic Activation: RAT, LIVER, S-9, PHENOBARBITAL AND BETA-NAPHTHOFLAVONE, Method: STANDARD PLATE) is “inactive; negative”. Also, the mutagenic call is “inactive; negative” under setting [5]; “inactive; negative” (Test System: AMES SALMONELLA TYPHIMURIUM, Strain/Indicator: TA102, Metabolic Activation: NONE, Method: STANDARD PLATE); “inactive; negative” (Test System: AMES SALMONELLA TYPHIMURIUM, Strain/Indicator: TA102, Metabolic Activation: RAT, LIVER, S-9, PHENOBARBITAL AND BETA-NAPHTHOFLAVONE, Method: PREINCUBATION); “inactive; negative” (Test System: AMES SALMONELLA TYPHIMURIUM, Strain/Indicator: TA102, Metabolic Activation: RAT, LIVER, S-9, PHENOBARBITAL AND BETA-NAPHTHOFLAVONE, Method: STANDARD PLATE); “inactive; negative” (Test System: AMES SALMONELLA TYPHIMURIUM, Strain/Indicator: TA1535, Metabolic Activation: NONE, Method: PREINCUBATION); “inactive; negative” (Test System: AMES SALMONELLA TYPHIMURIUM, Strain/Indicator: TA1535, Metabolic Activation: NONE, Method: STANDARD PLATE). Moreover, the mutagenic call is, setting by setting: (Test System: AMES SALMONELLA TYPHIMURIUM, Strain/Indicator: TA1535, Metabolic Activation: RAT, LIVER, S-9, PHENOBARBITAL AND BETA-NAPHTHOFLAVONE, Method: PREINCUBATION) “inactive; negative”; (Test System: AMES SALMONELLA TYPHIMURIUM, Strain/Indicator: TA1535, Metabolic Activation: RAT, LIVER, S-9, PHENOBARBITAL AND BETA-NAPHTHOFLAVONE, Method: STANDARD PLATE) “inactive; negative”; (Test System: AMES SALMONELLA TYPHIMURIUM, Strain/Indicator: TA1537, Metabolic Activation: NONE, Method: PREINCUBATION) “inactive; negative”; (Test System: AMES SALMONELLA TYPHIMURIUM, Strain/Indicator: TA1537, Metabolic Activation: NONE, Method: STANDARD PLATE) “inactive; negative”; (Test System: AMES SALMONELLA TYPHIMURIUM, Strain/Indicator: TA1537, Metabolic Activation: RAT, LIVER, S-9, PHENOBARBITAL AND BETA-NAPHTHOFLAVONE, Method: PREINCUBATION) “inactive; negative”; (Test System: AMES SALMONELLA TYPHIMURIUM, Strain/Indicator: TA1537, Metabolic Activation: RAT, LIVER, S-9, PHENOBARBITAL AND BETA-NAPHTHOFLAVONE, Method: STANDARD PLATE) “inactive; negative”. In addition, the mutagenic call was “inactive; negative” (Test System: AMES SALMONELLA TYPHIMURIUM, Strain/Indicator: TA1538, Metabolic Activation: NONE, Method: PREINCUBATION); “inactive; negative” (Test System: AMES SALMONELLA TYPHIMURIUM, Strain/Indicator: TA1538, Metabolic Activation: NONE, Method: STANDARD PLATE); “inactive; negative” (Test System: AMES SALMONELLA TYPHIMURIUM, Strain/Indicator: TA1538, Metabolic Activation: RAT, LIVER, S-9, PHENOBARBITAL AND BETA-NAPHTHOFLAVONE, Method: PREINCUBATION); “inactive; negative” (Test System: AMES SALMONELLA TYPHIMURIUM, Strain/Indicator: TA1538, Metabolic Activation: RAT, LIVER, S-9, PHENOBARBITAL AND BETA-NAPHTHOFLAVONE, Method: STANDARD PLATE).

On to `O=C(O)c1ccc(Cl)c([N+](=O)[O-])c1`, for which the mutagenic call was “active; positive” under setting [1]; “inactive; negative” (Test System: AMES SALMONELLA TYPHIMURIUM, Strain/Indicator: TA98, Metabolic Activation: RAT, LIVER, S-9, KANECHLOR 500, Method: PREINCUBATION); “active; positive” under setting [3]; “active; positive” (Test System: AMES SALMONELLA TYPHIMURIUM, Strain/Indicator: TA100, Metabolic Activation: RAT, LIVER, S-9, KANECHLOR 500, Method: PREINCUBATION).

As for `O=S(=O)(O)NO`, the mutagenic call reads like this: (Test System: AMES SALMONELLA TYPHIMURIUM, Strain/Indicator: G46, Metabolic Activation: RAT, LIVER, S-9, AROCLOR 1254, Method: STANDARD PLATE) “inactive; negative”; under setting [6], “inactive; negative”.

As for `Cc1cncc(C)n1`, the mutagenic call under setting [1] is “inactive; negative”; the mutagenic call under setting [2] is “active; positive”; the mutagenic call (Test System: AMES SALMONELLA TYPHIMURIUM, Strain/Indicator: TA98, Metabolic Activation: RAT, LIVER, S-9, AROCLOR 1254, Method: PREINCUBATION) is “inactive; negative”; the mutagenic call (Test System: AMES SALMONELLA TYPHIMURIUM, Strain/Indicator: TA98, Metabolic Activation: RAT, LIVER, S-9, AROCLOR 1254, Method: STANDARD PLATE) was “inactive; negative”; the mutagenic call under setting [3] was “inactive; negative”; the mutagenic call under setting [4] was “inactive; negative”. The mutagenic call is, setting by setting: (Test System: AMES SALMONELLA TYPHIMURIUM, Strain/Indicator: TA100, Metabolic Activation: RAT, LIVER, S-9, AROCLOR 1254, Method: PREINCUBATION) “inactive; negative”; under setting [6], “inactive; negative”; under setting [5], “inactive; negative”; (Test System: AMES SALMONELLA TYPHIMURIUM, Strain/Indicator: TA102, Metabolic Activation: RAT, LIVER, S-9, AROCLOR 1254, Method: PREINCUBATION) “inactive; negative”.

As to `Cc1c2ccccc2cc2c3c(ccc12)[C@@H](O)[C@H](O)C=C3`, the mutagenic call (Test System: CHINESE HAMSTER V-79, Strain/Indicator: V-79/8-AZAGUANINE, Metabolic Activation: NONE, Method: STANDARD PLATE) is “active; positive”.

As to `CN(C)c1ccc(N=Nc2ccc(S(=O)(=O)O)cc2)cc1`, the mutagenic call by setting is: (Test System: Ames Salmonella typhimurium, Strain/Indicator: TA102, Metabolic Activation: None, Method: Preincubation) “inactive; negative”; (Test System: Ames Salmonella typhimurium, Strain/Indicator: TA102, Metabolic Activation: Rat, Liver, S-9, Aroclor 1254, Method: Preincubation) “active; positive. statistically significant at highest dose”; (Test System: Ames Salmonella typhimurium, Strain/Indicator: TA104, Metabolic Activation: None, Method: Preincubation) “inactive; negative”; (Test System: Ames Salmonella typhimurium, Strain/Indicator: TA104, Metabolic Activation: Rat, Liver, S-9, Aroclor 1254, Method: Preincubation) “active; positive. statistically significant at highest dose”.

As to `COC(=O)/C=C/C(C)=C\C=C\C(C)=C\C=C\C=C(C)\C=C\C=C(C)\C=C\C(=O)O`, the mutagenic call runs as follows: (Test System: Mouse lymphoma, Strain/Indicator: L5178Y (tk+/tk-), Metabolic Activation: None, Method: Suspension/plate) “inactive; negative”; (Test System: Mouse lymphoma, Strain/Indicator: L5178Y (tk+/tk-), Metabolic Activation: Rat, Liver, S-9, Aroclor 1254, Method: Suspension/plate) “inactive; negative”.
